Source: ChEMBL document CHEMBL1131937 (Bioorg Med Chem Lett, 1999)

What was measured:
[1] = Relative affinity for alpha-2-adrenoceptor and phenylethanolamine N-methyl-transferase (PNMT); design: reference not given here
[2] = molecular target: T1, Adrenergic receptor alpha-2 (Rattus norvegicus, UniProt P22086+P19328+P22909); assay: Inhibition of [3H]clonidine binding to the rat alpha-2-adrenoceptor; type: protein assay; design: Log Ki: unit not given here
T1 sequence (P22086 whole entry): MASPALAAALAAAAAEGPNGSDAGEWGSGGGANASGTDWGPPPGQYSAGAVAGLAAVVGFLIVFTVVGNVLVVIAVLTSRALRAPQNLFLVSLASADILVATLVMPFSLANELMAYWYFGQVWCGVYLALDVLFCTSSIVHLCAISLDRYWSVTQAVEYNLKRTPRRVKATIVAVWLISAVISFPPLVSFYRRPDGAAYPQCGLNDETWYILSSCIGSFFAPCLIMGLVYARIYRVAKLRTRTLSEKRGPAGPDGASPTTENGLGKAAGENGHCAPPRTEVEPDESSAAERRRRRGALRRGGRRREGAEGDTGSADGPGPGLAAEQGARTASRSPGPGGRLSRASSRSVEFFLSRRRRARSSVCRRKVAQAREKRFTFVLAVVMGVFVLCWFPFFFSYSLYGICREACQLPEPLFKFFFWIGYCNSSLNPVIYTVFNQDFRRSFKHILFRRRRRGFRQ
T1 sequence (P19328 whole entry): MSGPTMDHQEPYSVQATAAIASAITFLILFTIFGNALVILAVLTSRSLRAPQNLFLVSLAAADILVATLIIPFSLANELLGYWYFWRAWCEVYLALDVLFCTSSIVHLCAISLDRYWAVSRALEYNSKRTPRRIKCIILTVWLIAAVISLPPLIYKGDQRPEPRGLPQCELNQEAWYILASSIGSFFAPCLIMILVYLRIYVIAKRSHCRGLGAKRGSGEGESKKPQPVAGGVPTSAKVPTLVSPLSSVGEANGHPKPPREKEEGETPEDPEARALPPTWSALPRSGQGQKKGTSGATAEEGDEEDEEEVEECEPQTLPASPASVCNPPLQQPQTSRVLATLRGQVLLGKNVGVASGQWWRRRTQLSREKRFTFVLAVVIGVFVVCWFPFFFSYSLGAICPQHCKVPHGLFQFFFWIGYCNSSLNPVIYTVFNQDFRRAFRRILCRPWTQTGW
T1 sequence (P22909 whole entry): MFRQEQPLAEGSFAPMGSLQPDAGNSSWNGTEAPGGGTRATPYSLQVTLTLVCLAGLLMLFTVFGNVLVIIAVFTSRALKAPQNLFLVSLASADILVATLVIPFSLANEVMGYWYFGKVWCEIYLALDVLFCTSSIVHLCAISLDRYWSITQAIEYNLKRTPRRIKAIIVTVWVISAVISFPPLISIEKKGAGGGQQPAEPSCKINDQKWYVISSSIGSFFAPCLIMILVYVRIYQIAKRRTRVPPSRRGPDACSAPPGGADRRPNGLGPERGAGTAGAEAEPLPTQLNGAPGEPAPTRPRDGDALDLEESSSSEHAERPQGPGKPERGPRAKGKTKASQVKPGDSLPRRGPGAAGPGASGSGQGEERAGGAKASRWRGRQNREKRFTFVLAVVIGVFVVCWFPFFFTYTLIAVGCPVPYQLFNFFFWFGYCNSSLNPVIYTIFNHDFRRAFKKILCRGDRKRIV

[3] = molecular target: T2, Phenylethanolamine N-methyltransferase (Bos taurus, UniProt P10938); assay: Inhibitory activity against bovine adrenal phenylethanolamine N-methyl-transferase (PNMT)
T2 sequence (P10938 whole entry): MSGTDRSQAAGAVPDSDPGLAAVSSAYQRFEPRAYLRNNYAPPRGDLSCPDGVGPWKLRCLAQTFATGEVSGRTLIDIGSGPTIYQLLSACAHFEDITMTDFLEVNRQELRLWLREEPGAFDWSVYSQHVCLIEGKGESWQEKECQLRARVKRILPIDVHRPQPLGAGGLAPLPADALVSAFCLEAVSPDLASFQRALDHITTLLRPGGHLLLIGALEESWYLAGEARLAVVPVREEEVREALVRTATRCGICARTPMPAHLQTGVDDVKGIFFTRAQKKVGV

| SMILES | Log Ki [2] | Ki [3] [µM] | also measured |
| --- | --- | --- | --- |
| NS(=O)(=O)c1ccc2c(c1)CNC(CO)C2 (stereo unspecified) | – | – | Selectivity [1]: 290 |
| O=C(c1ccc2c(c1)CNCC2)C(F)(F)F | 4.49 | – | – |
| Oc1ccc2c(c1)CNCC2 | 5.65 | – | – |
| C[C@@H]1Cc2sc3ccccc3c2CN1 | – | – | Selectivity [1]: 0.08 |
| N#Cc1ccc2c(c1)CNCC2 | 5.14 | – | – |
| O=[N+]([O-])c1ccc2c(c1)CNCCCC2 | 4.08 | 4.57 | – |
| O=C(O)c1ccc2c(c1)CNCC2 | 3.33 | – | – |
| Cc1ccc2c(c1)CNCC2 | 6.44 | 2.69 | – |
| C[C@@H]1Cc2ccc(Cl)c(Cl)c2CN1 | 6.66 | 0.355 | – |
| C[C@H](N)c1ccc(Cl)c(Cl)c1 | 4.44 | 5.01 | – |
| COc1cccc2c1CNCC2 | 6.52 | – | – |
| FC(F)(F)[C@@H]1Cc2ccc(Br)cc2CN1 | – | – | Selectivity [1]: 2.6 |
| C[C@H]1Cc2ccc([N+](=O)[O-])cc2CN1 | 4.72 | – | – |
| NS(=O)(=O)c1ccc2c(c1)CNCCC2 | 3.82 | 1.66 | – |
| Oc1cc2c(cc1O)CNCC2 | 6.32 | 3.89 | – |
| COc1ccc(OC)c2c1CCNC2 | 6.25 | 1000 | – |
| C[C@@H]1Cc2ccc([N+](=O)[O-])cc2CN1 | 4.28 | – | – |
| C[C@H]1Cc2ccccc2CN1 | 6.31 | – | – |
| Nc1ccc2c(c1)CNCC2 | 5.51 | – | – |
| Oc1cccc2c1CNCC2 | 6.14 | 603 | – |
| FC(F)(F)[C@H]1Cc2ccc(Br)cc2CN1 | – | – | Selectivity [1]: 0.83 |
| CS(=O)(=O)c1ccc2c(c1)CN[C@@H](C(F)(F)F)C2 | – | – | Selectivity [1]: 190 |

| SMILES | Log Ki [2] | Ki [3] [µM] | also measured |
| --- | --- | --- | --- |
| c1ccc2c(c1)CCCCNC2 | 4.81 | – | – |
| CC(=O)c1ccc2c(c1)CNCC2 | 5.21 | – | – |
| NS(=O)(=O)c1ccc2c(c1)CN[C@@H](C(F)(F)F)C2 | – | – | Selectivity [1]: 61 |
| Ic1ccc2c(c1)CNCC2 | 6.66 | – | – |
| CN1CCc2ccccc2C1 | 6.62 | 50.1 | – |
| C[C@@H]1CCc2ccc(Cl)c(Cl)c2CN1 | 5.56 | 0.417 | – |
| CS(=O)(=O)c1ccc2c(c1)CNCCC2 | 3.82 | 7.76 | – |
| OC[C@H]1Cc2ccc(Cl)c(Cl)c2CN1 | – | – | Selectivity [1]: 0.32 |
| O=[N+]([O-])c1cc2c(c([N+](=O)[O-])c1)CCCNC2 | 4.6 | 36.3 | – |
| O=S(=O)(c1ccc2c(c1)CNCC2)C(Cl)(Cl)Cl | 4.47 | 1.26 | – |
| FC(F)(F)C1Cc2ccc(Br)cc2CN1 (stereo unspecified) | – | – | Ki [2]: > 1000 µM; Selectivity [1]: > 1900 |
| FC(F)(F)C1Cc2ccccc2CN1 (stereo unspecified) | – | – | Ki [2]: 400 µM; Selectivity [1]: 26 |
| c1ccc2c(c1)CCCNC2 | 4.97 | – | – |
| N#Cc1ccc2c(c1)CN[C@@H](C(F)(F)F)C2 | – | – | Selectivity [1]: 15 |
| Oc1ccc2c(c1)CCNC2 | 6 | 5.75 | – |
| O=[N+]([O-])c1ccc2c(c1)CN[C@H](C(F)(F)F)C2 | – | – | Selectivity [1]: 25 |
| Nc1ccc2c(c1)CNCCC2 | 3.96 | 24 | – |
| Brc1ccc2c(c1)CNCC2 | – | 0.295 | – |
| C[C@H](N)c1ccccc1 | 3.92 | – | – |
| O=[N+]([O-])c1ccc2c(c1)CN[C@@H](C(F)(F)F)C2 | – | – | Selectivity [1]: 240 |
| CSc1ccc2c(c1)CNCCC2 | 4.92 | 1.05 | – |
| CS(=O)(=O)c1ccc2c(c1)CN[C@H](C(F)(F)F)C2 | – | – | Selectivity [1]: 22 |

| SMILES | Log Ki [2] | Ki [3] [µM] | also measured |
| --- | --- | --- | --- |
| OC[C@@H]1Cc2ccccc2CN1 | 4.77 | – | – |
| O=[N+]([O-])c1cc2c(c([N+](=O)[O-])c1)CCNC2 | 4.11 | 57.5 | – |
| C[C@H]1Cc2ccc(Cl)c(Cl)c2CN1 | 6.37 | 0.912 | – |
| C[C@@H]1Cc2ccccc2CN1 | 5.24 | – | – |
| NS(=O)(=O)c1ccc2c(c1)CN[C@H](C(F)(F)F)C2 | – | – | Ki [2]: 400 µM; Selectivity [1]: 26 |
| COC(=O)c1ccc2c(c1)CNCC2 | 5.34 | – | – |
| CSc1ccc2c(c1)CNCC2 | 6.39 | 0.617 | – |
| Oc1cccc2c1CCNC2 | 6.11 | – | – |
| C[C@@H](N)c1ccccc1 | 3.54 | – | – |
| OC[C@@H]1Cc2ccc(Cl)c(Cl)c2CN1 | – | – | Selectivity [1]: 2.1 |
| O=S(=O)(c1ccccc1)c1ccc2c(c1)CNCC2 | 4.67 | – | – |
| OCC1Cc2ccc(Cl)c(Cl)c2CN1 (stereo unspecified) | – | – | Selectivity [1]: 0.39 |
| FC(F)(F)[C@H]1Cc2ccccc2CN1 | – | – | Selectivity [1]: 0.05 |
| OC[C@H]1Cc2ccccc2CN1 | 5.36 | – | – |
| Oc1ccc2c3c(ccc2c1)CCNC3 | 7.1 | – | – |
| c1ccc2c(c1)CNCCN2 | 5.58 | – | – |
| C[C@H]1Cc2sc3ccccc3c2CN1 | – | – | Ki [2]: 1400 µM; Selectivity [1]: 4100 |
| N#Cc1ccc2c(c1)CN[C@H](C(F)(F)F)C2 | – | – | Selectivity [1]: 1.4 |
| COc1ccc2c3c(ccc2c1)CCNC3 | – | 14.1 | – |
| O=C(c1ccccc1)c1ccc2c(c1)CNCC2 | 4.57 | – | – |
| COc1cccc2c1CCNC2 | 6.89 | – | – |
| CNS(=O)(=O)c1ccc2c(c1)CNCC2 | 3.88 | – | – |

| SMILES | Log Ki [2] | Ki [3] [µM] | also measured |
| --- | --- | --- | --- |
| N#Cc1ccc2c(c1)CNC(C(F)(F)F)C2 (stereo unspecified) | – | – | Ki [2]: 2900 µM; Selectivity [1]: 220 |
| NCc1ccc2c(c1)CNCC2 | 4.92 | – | – |
| O=[N+]([O-])c1ccc2c(c1)CNC(C(F)(F)F)C2 (stereo unspecified) | – | – | Ki [2]: 1500 µM; Selectivity [1]: 750 |
| NC(=O)c1ccc2c(c1)CNCC2 | 4.64 | – | – |
| COc1ccc2c(c1)CNCC2 | 6.33 | – | – |
| c1ccc2c(c1)CCNC2 [1,2,3,4-TETRAHYDROISOQUINOLINE] | 6.45 | – | – |
| Clc1ccc2c(c1Cl)CNCCC2 | 5.39 | – | – |
| C=CCS(=O)(=O)c1ccc2c(c1)CNCC2 | 4.02 | – | – |
| FC(F)(F)c1ccc2c(c1)CNCC2 | 5.89 | 0.182 | – |
| O=[N+]([O-])c1ccc2c(c1)CNCCC2 | 4.18 | 0.389 | – |
| COC(=O)Nc1ccc2c(c1)CNCC2 | 5.04 | 186 | – |
| C[C@H]1CCc2ccc(Cl)c(Cl)c2CN1 | 5.36 | 5.75 | – |
| c1ccc(Cc2ccc3c(c2)CNCC3)cc1 | 5.33 | 61.7 | – |
| Clc1ccc2c(c1Cl)CNCC2 | 7.66 | – | – |
| NCc1cccc2ccccc12 | 5.79 | – | – |
| CN1CCCCc2ccccc2C1 | 5.39 | 1150 | – |
| C[C@@H](N)c1ccc(Cl)c(Cl)c1 | 4.39 | 32.4 | – |
| CC1Cc2sc3ccccc3c2CN1 (stereo unspecified) | – | – | Selectivity [1]: 1.3 |
| Brc1ccc2c(c1)CNCCC2 | 5.05 | 0.288 | – |
| CS(=O)(=O)c1ccc2c(c1)CNC(C(F)(F)F)C2 (stereo unspecified) | – | – | Ki [2]: 3900 µM; Selectivity [1]: 110 |
| OCc1ccc2c(c1)CNCC2 | 5.64 | – | – |
